Assay results as given in paper PMC7996900 (Microorganisms, 2021).

Target: SUMOHis6-GdpX6^GGDEF (GdpX6, PXO_02019) (Xanthomonas oryzae, UniProt A0A0K0GND9)
Experiment: biochemical

Chain of SUMOHis6-GdpX6^GGDEF (GdpX6, PXO_02019) (A0A0K0GND9 318-494 limits assumed): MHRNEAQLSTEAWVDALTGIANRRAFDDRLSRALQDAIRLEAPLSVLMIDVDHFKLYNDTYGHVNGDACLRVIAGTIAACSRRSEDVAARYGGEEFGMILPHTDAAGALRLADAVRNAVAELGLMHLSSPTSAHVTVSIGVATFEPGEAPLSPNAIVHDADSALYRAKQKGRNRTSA

Question: With `Nc1nc2c(ncn2[C@@H]2O[C@@H]3CO[P@](=O)(O)O[C@H]4[C@@H](O)[C@H](n5cnc6c(=O)[nH]c(N)nc65)O[C@@H]4CO[P@](=O)(O)O[C@H]3[C@H]2O)c(=O)[nH]1` [c-di-GMP] as the compound, how does the Kd read?
Answer: 9 ± 2.98 µM
